In patent US10030020B2, “Spirocycle compounds and methods of making and using same” (Abide Therapeutics, Inc., priority 2016, dated 2018) one finds inhibition and IC50 data, which are given here for 18 compounds.

Holding throughout (type): biochemical
The target in one assay is MAGL (Mus musculus (Mouse), UniProt O35678). Put plainly: In vitro competitive activity-based protein profiling (mouse brain membrane fraction or cell lysates), MAGL band. The following applies: for inhibition at 1 µM: read-out: MAGL % Inh 1 μM (mouse); for IC50: competitive ABPP. Here is the method:
(§1) In Vitro Competitive Activity-Based Protein Profiling.
Proteomes (mouse brain membrane fraction or cell lysates) (50 μL, 1.0 mg/mL total protein concentration) were preincubated with varying concentrations of inhibitors at 37° C. After 30 min, FP—Rh (1.0 μL, 50 μM in DMSO) was added and the mixture was incubated for another 30 min at 37° C. Reactions were quenched with SDS loading buffer (50 μL-4×) and run on SDS-PAGE.

For the next assay, the target named is ABHD6 (Mus musculus (Mouse), UniProt Q8R2Y0). The assay is described as follows: In vitro competitive activity-based protein profiling (mouse brain membrane fraction or cell lysates), ABHD6 band. The following applies: for inhibition at 1 µM: read-out: ABHD6 % Inh 1 μM (mouse); for IC50: competitive ABPP. Here is the method:
as §1
(§2) Proteomes (mouse brain membrane fraction or cell lysates) (50 μL, 1.0 mg/mL total protein concentration) were preincubated with varying concentrations of inhibitors at 37° C. After 30 min, FP—Rh (1.0 μL, 50 μM in DMSO) was added and the mixture was incubated for another 30 min at 37° C. Reactions were quenched with SDS loading buffer (50 μL-4×) and run on SDS-PAGE. Following gel imaging, serine hydrolase activity was determined by measuring fluorescent intensity of gel bands corresponding to MAGL, ABHD6 and FAAH using ImageJ 1.43u software.

In a further assay the target is FAAH (Mus musculus (Mouse), UniProt O08914). Put plainly: In vitro competitive activity-based protein profiling (mouse brain membrane fraction or cell lysates), FAAH band. As to conditions: for inhibition at 1 µM: read-out: FAAH % Inh 1 μM (mouse); for IC50: competitive ABPP. Here is the method:
as §1, §2

Read-outs that look alike come from different tables or passages of the source. A value given as a limit tells only on which side of the number the result lay.

Chain of ABHD6 (Q8R2Y0 whole entry): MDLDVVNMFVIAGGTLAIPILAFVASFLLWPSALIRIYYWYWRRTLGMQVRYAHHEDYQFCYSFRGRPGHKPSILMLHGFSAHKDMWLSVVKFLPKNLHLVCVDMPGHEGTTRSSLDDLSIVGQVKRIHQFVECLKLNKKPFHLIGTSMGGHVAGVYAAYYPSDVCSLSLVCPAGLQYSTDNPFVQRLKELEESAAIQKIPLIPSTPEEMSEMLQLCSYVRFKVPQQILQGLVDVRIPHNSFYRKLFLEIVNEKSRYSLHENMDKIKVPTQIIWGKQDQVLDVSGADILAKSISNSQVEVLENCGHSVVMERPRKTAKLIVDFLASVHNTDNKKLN
Chain of MAGL (O35678 whole entry): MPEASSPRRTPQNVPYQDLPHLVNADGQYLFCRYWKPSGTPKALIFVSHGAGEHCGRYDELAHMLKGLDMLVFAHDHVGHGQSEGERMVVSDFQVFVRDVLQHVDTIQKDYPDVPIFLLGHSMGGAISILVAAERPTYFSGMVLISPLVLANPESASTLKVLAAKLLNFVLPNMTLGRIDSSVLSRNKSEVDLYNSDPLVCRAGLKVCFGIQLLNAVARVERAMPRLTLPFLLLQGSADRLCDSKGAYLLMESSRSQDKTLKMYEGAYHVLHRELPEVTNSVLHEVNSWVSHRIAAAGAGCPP
Chain of FAAH (O08914 whole entry): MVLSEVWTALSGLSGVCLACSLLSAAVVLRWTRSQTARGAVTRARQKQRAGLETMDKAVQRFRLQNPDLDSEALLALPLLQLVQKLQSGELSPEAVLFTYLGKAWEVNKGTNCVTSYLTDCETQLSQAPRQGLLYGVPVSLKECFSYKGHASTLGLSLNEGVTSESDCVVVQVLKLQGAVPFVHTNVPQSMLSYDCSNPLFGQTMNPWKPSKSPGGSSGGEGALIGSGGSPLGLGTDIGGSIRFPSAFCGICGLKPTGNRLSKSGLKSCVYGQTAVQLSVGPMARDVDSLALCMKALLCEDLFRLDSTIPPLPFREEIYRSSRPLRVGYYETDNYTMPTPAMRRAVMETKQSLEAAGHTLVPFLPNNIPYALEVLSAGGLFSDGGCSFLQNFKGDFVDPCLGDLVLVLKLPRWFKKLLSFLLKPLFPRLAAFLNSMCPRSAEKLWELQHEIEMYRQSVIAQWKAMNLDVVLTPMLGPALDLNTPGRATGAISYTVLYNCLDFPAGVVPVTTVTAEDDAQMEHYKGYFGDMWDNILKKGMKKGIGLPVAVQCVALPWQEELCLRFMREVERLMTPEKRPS

Turning to `CC1(C)CC2(CCN(C(=O)OC(C(F)(F)F)C(F)(F)F)CC2)CN1Cc1cc(N2CCOCC2)cc(C(F)(F)F)c1` [Example 188, 1,1,1,3,3,3-Hexafluoropropan-2-yl 3,3-dimethyl-2-(3-morpholino-5-(trifluoromethyl)benzyl)-2,8-diazaspiro[4.5]decane-8-carboxylate], the inhibition at 1 µM was greater than 75% on MAGL (mouse proteome), 25 to 75% at ABHD6 (mouse proteome) and less than 25% at FAAH (mouse proteome). Also, the 50% inhibitory concentration (IC50) (usually the point on the concentration scale where inhibition reaches its midpoint) is 100 to 1000 nM at MAGL (mouse proteome), 100 to 1000 nM at ABHD6 (mouse proteome) and greater than 1000 nM at FAAH (mouse proteome).

With `Cc1cc(CN2CCC3(CCN(C(=O)OC(C(F)(F)F)C(F)(F)F)CC3)C2)ccc1Cl` [Example 135, 1,1,1,3,3,3-Hexafluoropropan-2-yl 2-(4-chloro-3-methylbenzyl)-2,8-diazaspiro[4.5]decane-8-carboxylate], the inhibition at 1 µM on MAGL (mouse proteome) is greater than 75%; on ABHD6 (mouse proteome), no less than 75%; on FAAH (mouse proteome) it was less than 25%. The results for the concentration for half-maximal inhibition (IC50) on MAGL (mouse proteome), on ABHD6 (mouse proteome) and at FAAH (mouse proteome) were less than 100 nM, 100 to 1000 nM and greater than 1000 nM, respectively.

As to `O=C(OC(C(F)(F)F)C(F)(F)F)N1CCC2(CCN(Cc3c(N4CCCC4)cccc3C(F)(F)F)C2)CC1` [Example 59, 1,1,1,3,3,3-Hexafluoropropan-2-yl 2-(2-(pyrrolidin-1-yl)-6-(trifluoromethyl)benzyl)-2,8-diazaspiro[4.5]decane-8-carboxylate], the inhibition at 1 µM is greater than 75% on MAGL (mouse proteome), less than 25% on ABHD6 (mouse proteome) and less than 25% at FAAH (mouse proteome). Moreover, the values for the IC50 at MAGL (mouse proteome), on ABHD6 (mouse proteome) and at FAAH (mouse proteome) were 100 to 1000 nM, greater than 1000 nM and greater than 1000 nM, respectively.

Turning to `CCN1CCc2cccc(CN3CCC4(CCN(C(=O)OC(C(F)(F)F)C(F)(F)F)CC4)C3)c2C1` [Example 159, 1,1,1,3,3,3-Hexafluoropropan-2-yl 2-((2-ethyl-1,2,3,4-tetrahydroisoquinolin-8-yl)methyl)-2,8-diazaspiro[4.5]decane-8-carboxylate], the inhibition at 1 µM at MAGL (mouse proteome) is greater than 75%; on ABHD6 (mouse proteome) it was no less than 75%; at FAAH (mouse proteome), less than 25%. In addition, the IC50 at MAGL (mouse proteome) was less than 100 nM; at ABHD6 (mouse proteome), greater than 1000 nM; on FAAH (mouse proteome), greater than 1000 nM.

Take `O=C(OC(C(F)(F)F)C(F)(F)F)N1CCC2(CCCN2Cc2ccc(OCCN3CCOCC3)cc2)CC1` [Example 14, 1,1,1,3,3,3-Hexafluoropropan-2-yl 1-(4-(2-morpholinoethoxy)benzyl)-1,8-diazaspiro[4.5]decane-8-carboxylate]: the results for the inhibition at 1 µM at MAGL (mouse proteome), on ABHD6 (mouse proteome) and on FAAH (mouse proteome) were greater than 75%, less than 25% and less than 25%, respectively.

In the case of `COc1ccc(CN2CCCC23CCN(C(=O)OC(C(F)(F)F)C(F)(F)F)CC3)cc1` [Example 1, 1,1,1,3,3,3-Hexafluoropropan-2-yl 1-(4-methoxybenzyl)-1,8-diazaspiro[4.5]decane-8-carboxylate], the inhibition at 1 µM was greater than 75% on MAGL (mouse proteome), less than 25% at ABHD6 (mouse proteome) and less than 25% at FAAH (mouse proteome). Besides, the IC50 at ABHD6 (mouse proteome) and on FAAH (mouse proteome) was greater than 1000 nM each time.

On to `O=C(OC(C(F)(F)F)C(F)(F)F)N1CCC2(CCCN2Cc2cccc(N3CCC4(CCOCC4)C3)c2Cl)CC1` [Example 117, 1,1,1,3,3,3-Hexafluoropropan-2-yl 1-(2-chloro-3-(8-oxa-2-azaspiro[4.5]decan-2-yl)benzyl)-1,8-diazaspiro[4.5]decane-8-carboxylate], for which the inhibition at 1 µM on MAGL (mouse proteome) is greater than 75%; at ABHD6 (mouse proteome) it was less than 25%; on FAAH (mouse proteome) it was less than 25%. The IC50 at ABHD6 (mouse proteome) and at FAAH (mouse proteome) was greater than 1000 nM each time.

Turning to `CC1(C)CC2(CCN(C(=O)OC(C(F)(F)F)C(F)(F)F)CC2)CN1Cc1cccc(N2CCOCC2)c1Cl` [Example 185, 1,1,1,3,3,3-hexafluoropropan-2-yl 2-(2-chloro-3-morpholinobenzyl)-3,3-dimethyl-2,8-diazaspiro[4.5]decane-8-carboxylate], the results for the inhibition at 1 µM on MAGL (mouse proteome), at ABHD6 (mouse proteome) and at FAAH (mouse proteome) were greater than 75%, no less than 75% and less than 25%, respectively. The IC50 on MAGL (mouse proteome) was 100 to 1000 nM; on ABHD6 (mouse proteome) it was 100 to 1000 nM; on FAAH (mouse proteome), greater than 1000 nM.

Take `CC(=O)N1CCN(c2cccc(CN3CCCC34CCN(C(=O)OC(C(F)(F)F)C(F)(F)F)CC4)c2Cl)CC1` [Example 114, 1,1,1,3,3,3-Hexafluoropropan-2-yl 1-(3-(4-acetylpiperazin-1-yl)-2-chlorobenzyl)-1,8-diazaspiro[4.5]decane-8-carboxylate]: the inhibition at 1 µM at MAGL (mouse proteome) was greater than 75%; at ABHD6 (mouse proteome) it was 25 to 75%; at FAAH (mouse proteome), less than 25%. For the same compound, the IC50 was less than 100 nM at MAGL (mouse proteome), greater than 1000 nM on ABHD6 (mouse proteome) and greater than 1000 nM at FAAH (mouse proteome).

As to `O=C(OC(C(F)(F)F)C(F)(F)F)N1CCC2(CCCN2Cc2ccccc2)CC1` [Example 63, 1,1,1,3,3,3-Hexafluoropropan-2-yl 1-benzyl-1,8-diazaspiro[4.5]decane-8-carboxylate], the inhibition at 1 µM is greater than 75% at MAGL (mouse proteome), less than 25% at ABHD6 (mouse proteome) and less than 25% at FAAH (mouse proteome). The IC50 on ABHD6 (mouse proteome) and on FAAH (mouse proteome) was greater than 1000 nM in each case.

Turning to `CC1(C)CC2(CCN(C(=O)OC(C(F)(F)F)C(F)(F)F)CC2)CN1Cc1c(N2CC3COCC3C2)cccc1C(F)(F)F` (centres unmarked) [Example 57, 1,1,1,3,3,3-Hexafluoropropan-2-yl 3,3-dimethyl-2-(2-(tetrahydro-1H-furo[3,4-c]pyrrol-5(3H)-yl)-6-(trifluoromethyl)benzyl)-2,8-diazaspiro[4.5]decane-8-carboxylate], the inhibition at 1 µM was greater than 75% on MAGL (mouse proteome), less than 25% on ABHD6 (mouse proteome) and less than 25% at FAAH (mouse proteome). Also, the IC50 on ABHD6 (mouse proteome) and on FAAH (mouse proteome) was greater than 1000 nM throughout.

As to `CN1CCC(Oc2cc(C(F)(F)F)ccc2CN2CCCC23CCN(C(=O)OC(C(F)(F)F)C(F)(F)F)CC3)CC1` [Example 165, 1,1,1,3,3,3-Hexafluoropropan-2-yl 1-(2-(1-methylpiperidin-4-yloxy)-4-(trifluoromethyl)benzyl)-1,8-diazaspiro[4.5]decane-8-carboxylate], the inhibition at 1 µM on MAGL (mouse proteome) was greater than 75%; at ABHD6 (mouse proteome), 25 to 75%; at FAAH (mouse proteome), less than 25%. Also, the IC50 is less than 100 nM at MAGL (mouse proteome), greater than 1000 nM at ABHD6 (mouse proteome) and greater than 1000 nM on FAAH (mouse proteome).

Take `COc1ccc(CN2CCCC23CCN(C(=O)OC(C(F)(F)F)C(F)(F)F)CC3)cc1C(=O)O` [Example 254]: the inhibition at 1 µM at MAGL (mouse) is 25 to 75%; on ABHD6 (mouse) it was less than 25%; on FAAH (mouse) it was less than 25%.

Turning to `O=C(OC(C(F)(F)F)C(F)(F)F)N1CCC2(CCCN2Cc2ccc3c(c2)OCCO3)CC1` [Example 126, 1,1,1,3,3,3-Hexafluoropropan-2-yl 1-(2,3-dihydro-1,4-benzodioxin-6-ylmethyl)-1,8-diazaspiro[4.5]decane-8-carboxylate], the inhibition at 1 µM on MAGL (mouse proteome) is greater than 75%; on ABHD6 (mouse proteome) it was 25 to 75%; at FAAH (mouse proteome) it was less than 25%. In addition, the values for the IC50 at MAGL (mouse proteome), on ABHD6 (mouse proteome) and on FAAH (mouse proteome) were less than 100 nM, greater than 1000 nM and greater than 1000 nM, respectively.

On to `CC(C)N1CCc2cccc(CN3CCCC34CCN(C(=O)OC(C(F)(F)F)C(F)(F)F)CC4)c2C1` [Example 147, 1,1,1,3,3,3-Hexafluoropropan-2-yl 1-((2-isopropyl-1,2,3,4-tetrahydroisoquinolin-8-yl)methyl)-1,8-diazaspiro[4.5]decane-8-carboxylate], for which the figures for the inhibition at 1 µM at MAGL (mouse proteome), at ABHD6 (mouse proteome) and at FAAH (mouse proteome) were greater than 75%, less than 25% and less than 25%, respectively. The IC50 at MAGL (mouse proteome) was 100 to 1000 nM; at ABHD6 (mouse proteome), greater than 1000 nM; at FAAH (mouse proteome), greater than 1000 nM.

Turning to `Cc1ccc(CN2CCCC23CCN(C(=O)OC(C(F)(F)F)C(F)(F)F)CC3)cc1C(=O)O` [Example 257], the inhibition at 1 µM at MAGL (mouse), on ABHD6 (mouse) and at FAAH (mouse) was less than 25% each time.

For the compound `CC1(C)CC2(CCN(C(=O)OC(C(F)(F)F)C(F)(F)F)CC2)CN1Cc1c(N2CCC3(CCOCC3)C2)cccc1C(F)(F)F` [Example 56, 1,1,1,3,3,3-Hexafluoropropan-2-yl 2-(2-(8-oxa-2-azaspiro[4.5]decan-2-yl)-6-(trifluoromethyl)benzyl)-3,3-dimethyl-2,8-diazaspiro[4.5]decane-8-carboxylate], the inhibition at 1 µM at MAGL (mouse proteome) was 25 to 75%; at ABHD6 (mouse proteome) it was less than 25%; on FAAH (mouse proteome), less than 25%. Further, the IC50 on MAGL (mouse proteome) was 100 to 1000 nM; at ABHD6 (mouse proteome) it was greater than 1000 nM; on FAAH (mouse proteome) it was greater than 1000 nM.

`O=C(OC(C(F)(F)F)C(F)(F)F)N1CCC2(CCN(Cc3ccc(N4CCCC4)c(Cl)c3)C2)CC1` [Example 139, 1,1,1,3,3,3-Hexafluoropropan-2-yl 2-(3-chloro-4-(pyrrolidin-1-yl)benzyl)-2,8-diazaspiro[4.5]decane-8-carboxylate]: the figures for the inhibition at 1 µM on MAGL (mouse proteome), at ABHD6 (mouse proteome) and at FAAH (mouse proteome) were greater than 75%, no less than 75% and less than 25%, respectively. Besides, the IC50 at MAGL (mouse proteome) is 100 to 1000 nM; at ABHD6 (mouse proteome) it was 100 to 1000 nM; at FAAH (mouse proteome), greater than 1000 nM.
